Assays:
Format in all cases: in vivo
[1] = system: fall armyworm larvae (Spodoptera frugiperda); assay: Spodoptera frugiperda spray test; settings: 168 h, maize leaf sections, after 7 days
Description: Spodoptera frugiperda—Spray Test • Solvent: 78.0 parts by weight acetone • 1.5 parts by weight dimethylformamide • Emulsifier: alkylarylpolyglycol ether
(§1) To produce a suitable preparation of active compound, 1 part by weight of active compound is mixed with the stated amount of solvents and is diluted with water, containing an emulsifier concentration of 1000 ppm, to the desired concentration. Further test concentrations are prepared by dilution with emulsifier containing water.
Maize (Zea mays) leaf sections are sprayed with a preparation of the active ingredient of the desired concentration. Once dry, the leaf sections are infested with fall armyworm larvae (Spodoptera frugiperda).
After 7 days mortality in % is determined. 100% means all caterpillars have been killed and 0% means none of the caterpillars have been killed.

[2] = system: adult mosquitoes Culex quinquefasciatus strain P00; assay: Culex quinquefasciatus test (CULXFA surface treatment & contact assay); settings: 24 hours after contact, read-out: efficacy (mortality); for mortality at 4 mg/m2: surface concentration 4 mg/m^2, 30 minutes exposure
Description: Culex quinquefasciatus Test (CULXFA Surface Treatment & Contact Assay) • Solvent: Aceton+2000 ppm rapeseed oil methyl ester (RME)
(§2) In order to produce a sufficient, active ingredient containing solution it is necessary to solve the test compound in the solvent-mix (acetone at 2 mg/ml/RME 2,000 ppm). This solution is pipetted onto a glazed tile and after evaporation of the acetone, adult mosquitoes of the species Culex quinquefasciatus strain P00 are placed onto the dried surface. The exposure time is 30 minutes. Mortality in percent (%) is determined 24 hours after contact of the insects to the treated surface. 100% mortality means that all tested insects are dead, whereas 0% means that no insect died.

[3] = system: cattle tick larvae (Rhipicephalus microplus); assay: Rhipicephalus (Boophilus) microplus in-vitro contact test, larval cattle tick (strain Parkhurst, resistant against synthetic pyrethroids); settings: 1 μg/cm^2 (=100 g/ha), after 48 hours, read-out: efficacy (larvae dead or moribund)
Description: Rhipicephalus (Boophilus) Microplus—In-Vitro Contact Tests Larval Cattle Tick (Strain Parkhurst, Resistant Against Synthetic Pyrethroids)
9 mg compound is solved in 1 mL acetone and diluted with acetone to the desired concentration. 250 μL of the test solution is filled in 25 mL glass test tubes and homogeneously distributed on the inner walls by rotation and tilting on a shaking device (2 h at 30 rpm). With a compound concentration of 900 ppm, an inner surface of 44.7 cm^2 and a homogeneous distribution, a dose of 5 μg/cm^2 is achieved.
After the solvent has evaporated, each test tube is filled with 20-50 cattle tick larvae (Rhipicephalus microplus), closed with a perforated lid and incubated in a horizontal position at 85% relative humidity and 27° C. in an incubator. After 48 hours efficacy is determined. The larvae are patted on the ground of the tubes and negative geotactic behavior is recorded.
An efficacy of 100% means all larvae are dead or moribund; 0% means no larvae are dead or moribund.

[4] = system: adult mosquitoes Aedes aegypti strain MONHEIM; assay: Aedes aegypti test (AEDSAE surface treatment & contact assay); settings: 24 hours after contact, read-out: efficacy (mortality); for mortality at 20 mg/m2: surface concentration 20 mg/m^2, 30 minutes exposure; for mortality at 4 mg/m2: surface concentration 4 mg/m^2, 30 minutes exposure
Description: Aedes aegypti Test (AEDSAE Surface Treatment & Contact Assay) • Solvent: Aceton+2000 ppm rapeseed oil methyl ester (RME)
as §2, with “2000” for “2,000”, “Aedes aegypti” for “Culex quinquefasciatus”, “MONHEIM” for “P00”

[5] = system: cotton aphid (Aphis gossypii); assay: Aphis gossypii oral test; settings: 120 h, after 5 days
Description: Aphis gossypii—Oral Test • Solvent: 100 Parts by Weight Acetone
(§3) To produce a suitable preparation of active compound, 1 part by weight of active compound is mixed with the stated amount of solvent, and the concentrate is diluted with water to the desired concentration.
(§4) 50 μL compound solution is filled in microtiter plates and 150 μL IPL41 insect medium (33%+15% sugar) is added to obtain a total volume of 200 μL per well. Afterwards the plates are sealed with parafilm through which a mixed population of the cotton aphid (Aphis gossypii) can suck on the compound preparation.
(§5) After 5 days mortality in % is determined. 100% means all aphids have been killed and 0% means none of the aphids have been killed.

[6] = system: green peach aphid (Myzus persicae); assay: Myzus persicae oral test; settings: 120 h, after 5 days
Description: Myzus persicae—Oral Test • Solvent: 100 parts by weight acetone
as §3
as §4, with “green peach” for “cotton”, “(Myzus persicae)” for “(Aphis gossypii)”
as §5

[7] = system: larvae of the banded cucumber beetle (Diabrotica balteata); assay: Diabrotica balteata spray test; settings: 168 h, 100 g/ha (=32 μg/well), wheat seeds, after 7 days, read-out: efficacy (seedling growth)
Description: Diabrotica Balteata—Spray Test
• Solvent: 78.0 Parts by Weight of Acetone • 1.5 parts by weight of dimethylformamide • Emulsifier: Alkylarylpolyglycol Ether
as §1, with “solvent,” for “solvents”, “and the concentrate” for “and”
Soaked wheat seeds (Triticum aestivum) are placed in a multiple well plate filled with agar and some water and are incubated for 1 day to germinate (5 seeds per well). The germinated wheat seeds are sprayed with a test solution containing the desired concentration of the active ingredient. Afterwards each unit is infected with 10-20 larvae of the banded cucumber beetle (Diabrotica balteata).
After 7 days efficacy in % is determined. 100% means all the seedlings have grown up like in the untreated, uninfected control; 0% means none of the seedlings have grown.

[8] = system: adult flies Musca domestica strain WHO-N; assay: Musca domestica test (MUSCDO surface treatment & contact assay); settings: 24 hours after contact, read-out: efficacy (mortality); for mortality at 4 mg/m2: surface concentration 4 mg/m^2, 30 minutes exposure; for mortality at 20 mg/m2: surface concentration 20 mg/m^2, 30 minutes exposure
Description: Musca domestica Test (MUSCDO Surface Treatment & Contact Assay) • Solvent: Aceton+2000 ppm rapeseed oil methyl ester (RME)
as §2, with “2000” for “2,000”, “flies” for “mosquitoes”, “Musca domestica” for “Culex quinquefasciatus”, “WHO-N” for “P00”

[9] = system: larvae of the southern green stink bug (Nezara viridula); assay: Nezara viridula spray test; settings: 96 h, barley plants, after 4 days
Description: Nezara viridula—Spray Test • Solvent: 78.0 parts by weight of acetone • 1.5 parts by weight of dimethylformamide • Emulsifier: alkylarylpolyglycol ether
as §1, with “solvent,” for “solvents”, “and the concentrate” for “and”
Barley plants (Hordeum vulgare) are sprayed with a test solution containing the desired concentration of the active ingredient and are infested with larvae of the southern green stink bug (Nezara viridula).
After 4 days mortality in % is determined. 100% means all the stink bugs have been killed; 0% means none of the stink bugs have been killed.

`C[C@H](NC(=O)c1cc(C(F)(F)F)cc(C(F)(F)F)c1)c1nc2ncccc2n1-c1ccc(C#N)cn1` [Example I-32] was tested, and the mortality at 100 g/ha [1] was 100%.
In the case of `CC(NC(=O)c1cc(OC(F)(F)F)cc(C2CC2)c1)c1nc2ncccc2n1-c1ccc(Cl)cn1` (centres unmarked) [Example I-33, N-[1-[I-(5-chloro-2-pyridyl)imidazo[4,5-b]pyridin-2-yl]ethyl]-3-cyclopropyl-5-(trifluoromethoxy) benzamide], the mortality at 4 mg/m2 [2] is reported as 80 to 100% and the mortality at 100 g/ha [1] is reported as 100%.
`C[C@H](NC(=O)c1cc(C#N)cc(C(C)(C)C#N)c1)c1nc2cccnc2n1-c1ccc(C#N)cn1` [Example I-7] gave a pest or weed control at 1 µg/cm2, 100 g/ha [3] of 90%, a mortality at 20 mg/m2 [4] of 80 to 100% and a mortality at 100 ppm [5] of 100%. It also gave a mortality at 100 g/ha [1] of 100% and a mortality at 20 ppm [6] of 100%.
`CC(NC(=O)c1cc(OC(F)(F)F)cc(C2(C#N)CC2)c1)c1nc2cccnc2n1-c1ccc(Cl)cn1` (centres unmarked) [Example I-11] showed a pest or weed control at 1 µg/cm2, 100 g/ha [3] of 90%, a pest or weed control at 32 µg/disc, 100 g/ha [7] of 100% and a mortality at 20 mg/m2 [4] of 80 to 100%. The mortality at 100 g/ha [1] was 100%, the mortality at 4 mg/m2 [8] was 80 to 100% and the mortality at 20 mg/m2 [8] was 80 to 100%.
In the case of `CC(NC(=O)c1cc(OC(F)(F)F)cc(S(C)(=O)=O)c1)c1nc2cccnc2n1-c1ccc(Cl)cn1` (centres unmarked) [Example I-12], the mortality at 500 g/ha [9] is reported as 100%, the pest or weed control at 32 µg/disc, 100 g/ha [7] is reported as 100% and the mortality at 100 g/ha [1] is reported as 100%.
For `CC(NC(=O)c1cc(Cl)cc(OC(F)(F)F)c1)c1nc2cc(F)cnc2n1-c1ccc(C#N)cn1` (centres unmarked) [Example I-34], the pest or weed control at 32 µg/disc, 100 g/ha [7] was 100% and the mortality at 100 g/ha [1] was 100%.
Work on `Cc1ccc2nc(C(C)NC(=O)c3cc(Cl)cc(OC(F)(F)F)c3)n(-c3ccc(C#N)cn3)c2n1` (centres unmarked) [Example I-20] yielded a mortality at 100 g/ha [1] of 100%.
`Cc1ccc2nc(C(C)NC(=O)c3cc(OC(F)(F)F)cc(S(C)(=O)=O)c3)n(-c3ccc(C#N)cn3)c2n1` (centres unmarked) [Example I-23] gave a mortality at 100 g/ha [1] of 100%.
For `CC(NC(=O)c1cc(OC(F)(F)F)cc(S(C)(=O)=O)c1)c1nc2cccnc2n1-c1ccc(C(=O)N(C)C)cn1` (centres unmarked) [Example I-29], the mortality at 500 g/ha [9] was 90%.
`CNC(=O)c1ccc(-n2c(C(C)NC(=O)c3cc(OC(F)(F)F)cc(S(C)(=O)=O)c3)nc3cccnc32)nc1` (centres unmarked) [Example I-28] gave a mortality at 500 g/ha [9] of 100%.
`CC(NC(=O)c1cc(C#N)cc(OC(F)(F)F)c1)c1nc2cccnc2n1-c1ccc(C#N)cn1` (centres unmarked) [Example I-42] was tested, and the mortality at 100 g/ha [1] was 100%.
`CC(NC(=O)c1cc(OC(F)(F)F)cc(S(=O)(=O)C(F)F)c1)c1nc2cccnc2n1-c1ccc(C#N)cn1` (centres unmarked) [Example I-36] showed a pest or weed control at 32 µg/disc, 100 g/ha [7] of 100% and a mortality at 100 g/ha [1] of 100%.
`CC(NC(=O)c1cc(C(F)(F)F)cc(C(F)(F)F)c1)c1nc2cnccc2n1-c1ccc(Cl)cn1` (centres unmarked) [Example I-39, N-[1-[1-(5-chloro-2-pyridyl)imidazo[4,5-c]pyridin-2-yl]ethyl]-3,5-bis(trifluoromethyl)benzamide] was tested, and the mortality at 500 g/ha [9] was 100% and the pest or weed control at 32 µg/disc, 100 g/ha [7] was 100%.
`CC(NC(=O)c1cc(C(F)(F)F)cc(C(F)(F)F)c1)c1nc2cccnc2n1-c1ccc(C(N)=O)cn1` (centres unmarked) [Example I-30] gave a mortality at 500 g/ha [9] of 100%.
In the case of `COC(=O)c1ccc(-n2c(C(C)NC(=O)c3cc(OC(F)(F)F)cc(S(C)(=O)=O)c3)nc3cccnc32)nc1` (centres unmarked) [Example I-24], the mortality at 4 mg/m2 [2] is reported as 80 to 100%, the mortality at 20 mg/m2 ([2]; surface concentration 20 mg/m^2, 30 minutes exposure) is reported as 80 to 100% and the mortality at 4 mg/m2 [4] is reported as 80 to 100%. For the same compound, the mortality at 20 mg/m2 [4] was 80 to 100%, the mortality at 100 ppm [5] was 100% and the mortality at 20 ppm [6] was 100%.
In the case of `CC(NC(=O)c1cc(C(F)F)cc(C(F)F)c1)c1nc2cccnc2n1-c1ccc(C#N)cn1` (centres unmarked) [Example I-44], the mortality at 100 g/ha [1] is reported as 83%.
For `CC(NC(=O)c1cc(Br)cc(OC(F)(F)F)c1)c1nc2cccnc2n1-c1ccc(C#N)cn1` (centres unmarked) [Example I-41], the pest or weed control at 32 µg/disc, 100 g/ha [7] was 100% and the mortality at 100 g/ha [1] was 100%.
Compound `CC(NC(=O)c1cc(OC(F)(F)F)cc(C(C)(F)F)c1)c1nc2cccnc2n1-c1ccc(C#N)cn1` (centres unmarked) [Example I-37] has a pest or weed control at 32 µg/disc, 100 g/ha [7] of 100% and a mortality at 100 g/ha [1] of 100%.
For `CC(NC(=O)c1cc(OC(F)(F)F)cc(C(C)(C)C#N)c1)c1nc2cccnc2n1-c1ccc(Cl)cn1` (centres unmarked) [Example I-14], the pest or weed control at 1 µg/cm2, 100 g/ha [3] was 100%, the mortality at 20 mg/m2 [4] was 80 to 100% and the mortality at 100 g/ha [1] was 83%. For the same compound, the mortality at 20 mg/m2 [8] was 80 to 100%.
For `C[C@H](NC(=O)c1cc(Cl)cc(S(C)(=O)=O)c1)c1nc2cccnc2n1-c1ccc(C#N)cn1` [Example I-5], the mortality at 500 g/ha [9] was 100%, the mortality at 100 ppm [5] was 100% and the mortality at 100 g/ha [1] was 100%. It also gave a mortality at 20 ppm [6] of 100%.
With `C[C@H](NC(=O)c1cc(OC(F)(F)F)cc(OC(F)(F)F)c1)c1nc2cccnc2n1-c1ccc(C#N)cn1` [Example I-16] the pest or weed control at 1 µg/cm2, 100 g/ha [3] was 100%, the pest or weed control at 32 µg/disc, 100 g/ha [7] was 100% and the mortality at 4 mg/m2 [4] was 80 to 100%. For the same compound, the mortality at 20 mg/m2 [4] was 80 to 100%, the mortality at 100 g/ha [1] was 100% and the mortality at 4 mg/m2 [8] was 80 to 100%. The mortality at 20 mg/m2 [8] was 80 to 100%.
For `CC(NC(=O)c1cc(Cl)cc(S(C)(=O)=O)c1)c1nc2cccnc2n1-c1ccc(Cl)cn1` (centres unmarked) [Example I-10], the mortality at 4 mg/m2 [2] was 80 to 100%, the mortality at 500 g/ha [9] was 100% and the mortality at 4 mg/m2 [4] was 80 to 100%. It also gave a mortality at 20 mg/m2 [4] of 80 to 100%, a mortality at 100 ppm [5] of 100% and a mortality at 100 g/ha [1] of 100%. For the same compound, the mortality at 20 ppm [6] was 100%.
